Assay results published in patent US8497293B2, “Haloalkylsubstituted aryloxyalkylimidazolines for use as pesticides” (Syngenta Crop Protection LLC, priority 2007, dated 2013).
Counter-ions that a name gives are not always drawn. Like-named read-outs stand apart in the source and are kept apart here.

How the values were obtained:
[1] = system: Myzus persicae (Green Peach Aphid); test: Myzus persicae sunflower leaf disc spray test; assay type: in vivo; details: foliar, 144 h, read-out: control (mortality)
Procedure: Sunflower leaf discs were placed on agar in a 24-well microtiter plate and sprayed with test solutions at an application rate of 200 ppm. After drying, the leaf discs were infested with an aphid population of mixed ages. After an incubation period of 6 DAT, samples were checked for mortality. The following compounds gave 100% control: 1.001, 1.003, 1.004, 1.005, 1.006, 1.007, 1.008, 1.016, 1.017, 1.019, 1.021, 1.023 and 1.024. The following compounds gave 80% control: 1.002 and 1.026. The following compounds gave 50% control: 1.010, 1.018, 1.025 and 1.027.

[2] = system: Myzus persicae (Green Peach Aphid); test: Myzus persicae pea seedling root (systemic) test; assay type: in vivo; details: 144 h, read-out: control (mortality)
Description: Roots of pea seedlings, infested with an aphid population of mixed ages, were placed directly in the test solutions of 24 ppm. 6 days after introduction, samples were checked for mortality. The following compounds gave 100% control: 1.001, 1.003, 1.016, 1.021, 1.022 and 1.024. The following compounds gave 80% control: 1.005, 1.019, 1.020 and 1.023.

[3] = system: Tetranychus urticae (Two-Spotted Spider Mite); test: Tetranychus urticae bean leaf disc spray test; assay type: in vivo; details: foliar, 192 h, read-out: control (egg mortality, larval mortality, adult mortality)
Description: Bean leaf discs on agar in 24-well microtiter plates wer sprayed with test solutions at an application rate of 200 ppm. After drying, the leaf discs are infested with mite populations of mixed ages. 8 days later, discs are checked for egg mortality, larval mortality, and adult mortality. The following compounds gave 100% control: 1.001, 1.003, 1.004, 1.005, 1.007, 1.016, 1.021, 1.022, 1.023, and 1.024. The following compounds gave 80% control: 1.019, 1.025 and 1.027.

[4] = system: Heliothis virescens (Tobacco Budworm); test: Heliothis virescens egg/larval test on artificial diet; assay type: in vivo; details: read-out: control (egg mortality, larval mortality, growth regulation)
Procedure: Eggs (0-24 h old) were placed in 24-well microtiter plate on artificial diet and treated with test solutions at an application rate of 200 ppm by pipetting. After an incubation period of 4 days, samples were checked for egg mortality, larval mortality, and growth regulation. The following compounds gave 100% control: 1.016, 1.020 and 1.024. The following compounds gave 80% control: 1.001, 1.003 and 1.022. The following compounds gave 50% control: 1.004, 1.007, and 1.014.

[5] = 200 ppm by pipetting, eggs 0-24 h old on artificial diet, 4 days incubation

Row | Compound | mortality at 200 ppm [1] [%] | mortality at 24 ppm [2] [%] | mortality at 200 ppm [3] [%] | melting point [°C] | mortality at 200 ppm [4] [%] | mortality at 200 ppm [4, 5] [%]
1 | Cc1c(OC(C2=NCCN2)C(C)C)cccc1C(F)(F)F (stereo not shown) [Compound 1.005] | 100 | 80 | 100 |  |  | 
2 | CCC(Oc1cccc(C(F)F)c1C1CC1)C1=NCCN1 (stereo not shown) [Compound 1.017] | 100 |  |  |  |  | 
3 | CCC(Oc1cccc(C(F)(F)F)c1C(F)(F)F)C1=NCCN1 (stereo not shown) |  |  |  | 127 to 133 |  | 
4 | CCCC(Oc1cccc(C(F)(F)F)c1S(C)(=O)=O)C1=NCCN1 (stereo not shown) |  |  |  | 112 to 120 |  | 
5 | CCC(Oc1cccc(C(F)(F)F)c1CO)C1=NCCN1 (stereo not shown) (as salt: chloride) |  |  |  | 150 to 157 |  | 
6 | CCC(Oc1cccc(C(F)(F)F)c1C)C1=NCCN1 (stereo not shown) [Compound 1.001, 2-[1-(2-methyl-3-trifluoromethyl-phenoxy)-propyl]-4,5-dihydro-1H-imidazole] | 100 | 100 | 100 |  | 80 | 
7 | CCc1c(OC(CC)C2=NCCN2)cccc1C(F)(F)F (stereo not shown) (as salt: oxalate) |  |  |  | 185 to 187 |  | 
8 | CCC(Oc1cccc(C(F)F)c1C)C1=NCCN1 (stereo not shown) [Compound 1.023] | 100 | 80 | 100 |  |  | 
9 | CCCCC(Oc1cccc(C(F)(F)F)c1C)C1=NCCN1 (stereo not shown) [Compound 1.004] | 100 |  | 100 |  |  | 50
10 | CCCC(Oc1cccc(C(F)F)c1C)C1=NCCN1 (stereo not shown) [Compound 1.016] | 100 | 100 | 100 |  |  | 100
11 | CCCC(Oc1cccc(C(F)(F)F)c1C)C1=NCCN1 (stereo not shown) [Compound 1.003] | 100 | 100 | 100 |  |  | 80
12 | CCC(Oc1cccc(C(F)(F)F)c1C(F)F)C1=NCCN1 (stereo not shown) [Compound 1.002] | 80 |  |  |  |  | 
13 | CCCCC(Oc1cccc(CF)c1C)C1=NCCN1 (stereo not shown) [Compound 1.020] |  | 80 |  |  |  | 100
14 | CCCC(Oc1cccc(CF)c1C)C1=NCCN1 (stereo not shown) [Compound 1.024] | 100 | 100 | 100 |  |  | 100
15 | CCCC(Oc1cccc(C(F)(F)F)c1SC)C1=NCCN1 (stereo not shown) (as salt: maleate) |  |  |  | 90 to 109 |  | 
16 | CCCCC(Oc1cccc(C(F)F)c1C)C1=NCCN1 (stereo not shown) [Compound 1.019] | 100 | 80 | 80 |  |  | 
17 | CCC(Oc1cccc(CF)c1C)C1=NCCN1 (stereo not shown) [Compound 1.022] |  | 100 | 100 |  | 80 | 
18 | Cc1c(OC(C2=NCCN2)C(C)C)cccc1C(F)F (stereo not shown) [Compound 1.021] | 100 | 100 | 100 |  |  | 
